Reference: patent US20070259837A1, “Use of Non-Glucocorticoid Steroids for the Treatment of Muscular Dystrophy” (SANTHERA PHARMACEUTICALS (SCHWEIZ) AG, priority 2004, published 2007)
Read-outs that look alike come from different tables or passages of the source.

Assays:
[1] = test system: utrophin protein in human muscle cells derived from DMD patients; assay: Cell-based ELISA for normalized utrophin protein level in primary human myotube cultures; details: for % UTR vs. PDN (normalized utrophin protein as % of PDN-treated sister cultures): same experiment; for activity at 0.5 µM: Myotube, read-out: % UTR vs. DMSO (normalized utrophin protein over DMSO-solvent treated control)
Procedure: The method used to detect and determine utrophin-inducing activity of non-glucocorticoid steroids has been described previously (Courdier-Fruh, I., Barman, L., Briguet, A. & Meier, T.; 2002, Neuromuscul. Disord.; 12 Suppl:S95). Briefly, primary human muscle cell cultures were prepared according to standard protocols (Askanas V, Kwan H, Alvarez R B, Engel W K, Kobayashi T, Martinuzzi A, Hawkins E F., 1987, J Neurocytol., 16:523-537). Test compounds and the glucocorticoid 6α-methylprednisolone-21 sodium succinate (Pharmacia & Upjohn; Solu-Medrol®, PDN) as reference compound were applied at 500 nM final concentration as soon as myoblasts started to differentiate into myotubes. Incubation with the test compound was ended as soon as well differentiated myotubes have formed, typically resulting in an incubation time with a test compound for 3-7 days.
Normalized concentrations of utrophin protein in human muscle cells cultured in microtiter plates were determined by a cell-based enzyme-linked immunosorbent assay (ELISA) procedure that allows a successive readout for the cell density and utrophin protein level. For calibration, the cell density and differentiation was determined by absorbance measurements of the total dehydrogenase enzyme activity in each well using the colorimetric CellTiter 96®AQ One Solution Reagent Proliferation Assay (Promega) according to the manufacturer's recommendation. Subsequently, cells were fixed, washed, permeabilized with 0.5% (v/v) Triton X-100 and unspecific antibody binding-sites were blocked by standard procedures. Utrophin protein levels were determined immunologically with utrophin-specific primary antibodies (mouse monoclonal antibody to the amino terminal portion of utrophin, NCL-DRP2, Novocastra Laboratories) and with appropriate peroxidase-coupled secondary antibodies using QuantaBlu™ Fluorogenic Peroxidase Substrate Kit (Pierce) for detection. Fluorescence measurements were carried out with a multilabel counter (Wallac) at λex=325 nm and at λem=420 nm. The primary readout of this signal is presented in arbitrary units. For calibration, the arbitrary units representing the relative utrophin protein content of each well were divided by the corresponding cell-titer absorbance value to correct for cell density. For comparison between experiments, the cell-titer corrected readout for utrophin protein content in each well was expressed in percent of solvent treated control cultures (set to 100%). PDN was included in all experiments as reference glucocorticoid, N=3-5 for each compound tested.
Non-glucocorticoid test compounds, applied in a concentration of 500 nM, were regarded as “positive” in case the increase in the level of utrophin protein was at least 20% (mean value) over control cultures treated with the appropriate dilution of DMSO solvent as control and containing no test compound.
A range of different pharmaceutical compounds were tested for their ability to increase levels of utrophin protein in primary human myotube cultures. The cell-based ELISA protocol used to detect the level of utrophin protein is provided above and described in Courdier-Fruh, I., Barman, L., Briguet, A. & Meier, T, 2002, Neuromuscul. Disord.: 12, Suppl:S95. Briefly, fixed and permeabilized human muscle cells derived from DMD patients and cultured in 96-well cell culture plates were incubated with antibodies specific for utrophin at a dilution of 1:1'000 in blocking solution (phosphate buffered saline (PBS) supplemented with 2% fetal calf serum and 1% bovine serum albumin) for 10-15 hours at 4° C. Following several washing steps with 0.1% Triton X-100 in PBS, peroxidase-coupled secondary antibodies diluted 1:3'000 in blocking solution were applied in each well for 1-2 hours at room temperature. Signal detection, data acquisition and normalization was performed as described above and in Courdier-Fruh, I., Barman, L., Briguet, A. & Meier, T, 2002, Neuromuscul. Disord.: 12, Suppl:S95. […]

[2] = test system: utrophin protein in human muscle cells derived from DMD patients; details: cited from earlier work; for increase of utrophin protein content in human muscle cells (reported for glucocorticoids): Courdier-Fruh et al. 2002
[3] = 500 nM compound, human muscle cultures, mean value, N=3-6

Row | Molecule | % UTR vs. PDN (normalized utrophin protein as % of PDN-treated sister cultures) [1, 3] [%] | activity at 0.5 µM ([1]; Homo sapiens) [%] | other results
1 | C[C@]12CC(=O)C3C(CC[C@@H]4C[C@H](O)CC[C@]34C)C1CC[C@]2(O)C1(CO)OCCO1 (stereo partly shown) [Example 70] | 94 | 122 | 
2 | C[C@]12CCC3c4ccc(O)cc4CCC3C1CC[C@@H]2O (stereo partly shown) [Example 71, Estradiol] | 105 |  | activity at 0.5 µM [1, 3]: 136%
3 | C[C@]12CCC3c4ccc(OCc5ccccc5)cc4CCC3C1C[C@@H](O)[C@@H]2O (stereo partly shown) [Example 72] | 105 | 132 | 
4 | C[C@]12CCC3c4ccc(OC(=O)c5ccccc5)cc4CCC3C1CC[C@@H]2O (stereo partly shown) [Example 73] | 105 |  | activity at 0.5 µM [1, 3]: 132%
5 | C[C@]12CCC3c4ccc(OC(=O)c5ccccc5)cc4CCC3C1CCC2=O (stereo partly shown) [Example 74] | 103 | 124 | 
6 | CCC(=O)Oc1ccc2c(c1)CCC1C2CC[C@@]2(C)C1C[C@@H](OC(=O)CC)[C@@H]2OC(=O)CC (stereo partly shown) [Example 75] | 102 | 131 | 
7 | CC(=O)Oc1ccc2c(c1)CCC1C2CC[C@]2(C)C(=O)CCC12 (stereo partly shown) [Example 76, Estrone acetate] | 102 | 129 | 
8 | CC(=O)O[C@H]1CCC2C3CCc4cc(O)ccc4C3CC[C@@]21C (stereo partly shown) [Example 77] | 102 | 128 | 
9 | C[C@]12CCC3c4ccc(OC(=O)c5ccccc5)cc4CCC3C1C[C@@H](O)[C@@H]2O (stereo partly shown) [Example 78] | 99 | 124 | 
10 | COc1ccc2c(c1)CCC1C2CC[C@@]2(C)C1CC[C@]2(C)O (stereo partly shown) [Example 79] | 98 | 126 | 
11 | C[C@]12CCC3c4ccc(O)cc4C=CC3C1CCC2=O (stereo partly shown) [Example 80] | 96 |  | activity at 0.5 µM [1, 3]: 125%
12 | C[C@]12C(=CCC1C1=CC(=O)OC1)C1CC[C@@H]3C[C@@H](O)CC[C@]3(C)C1C[C@H]2O (stereo partly shown) [Example 81] | 103 | 129 | 
13 | C[C@]12CCC3C(CC[C@]4(O)C[C@@H](O)CC[C@]34C=O)[C@@]1(O)CCC2C1=CC(=O)OC1 (stereo partly shown) [Example 82] | 101 | 122 | 
14 | CC(=O)O[C@@H]1C[C@]2(C)C(C3=CC(=O)OC3)CC[C@]2(O)C2CC[C@@H]3C[C@@H](O)CC[C@]3(C)C21 (stereo partly shown) [Example 83] | 99 | 121 | 
15 | C[C@]12CCC(=O)C[C@H]1CCC1C2C(=O)C[C@]2(C)C(C3=CC(=O)OC3)CC[C@]12O (stereo partly shown) [Example 84] | 98 | 123 | 
16 | C[C@]12C[C@@H](O)C3C(CC[C@@H]4C[C@@H](O)CC[C@]34C)C1=CCC2C1=CC(=O)OC1 (stereo partly shown) [Example 85] | 99 | 120 | 
17 | C[C@H]1C[C@@H]2[C@H]([C@@H](O)C[C@@]3(C)[C@H]2CC[C@]3(O)C(=O)COC(=O)CCC(=O)[O-])[C@@]2(C)C=CC(=O)C=C12.[Na+] [PDN, 6α-methylprednisolone-21 sodium succinate, reference compound] |  |  | utrophin protein levels normalized to cell density (UTR, relative units) compared to solvent-treated control (DMSO) ([1]; human DMD-patient derived muscle cells, 500 nM, FIG. 1 / FIG. 2, N=5-6): up to 200%; inhibition of PDN-mediated utrophin increase by RU38486 ([2]; simultaneous exposure to RU38468, previous experiments (Courdier-Fruh 2002)): could be inhibited
18 | C[C@@H]1C[C@H]2[C@@H]3CCC4=CC(=O)C=C[C@]4(C)[C@@]3(F)[C@@H](O)C[C@]2(C)[C@@]1(O)C(=O)CO [dexametasone] |  |  | increase of utrophin protein content in human muscle cells (reported for glucocorticoids) [2]: increase of utrophin protein content
19 | CC1(C)O[C@@H]2C[C@H]3[C@@H]4C[C@H](F)C5=CC(=O)C=C[C@]5(C)[C@@]4(F)[C@@H](O)C[C@]3(C)[C@]2(C(=O)CO)O1 [fluocinolone acetonide] |  |  | increase of utrophin protein content in human muscle cells (reported for glucocorticoids) [2]: increase of utrophin protein content
20 | CC1(C)O[C@@H]2C[C@H]3[C@@H]4CCC5=CC(=O)CC[C@]5(C)[C@@]4(F)[C@@H](O)C[C@]3(C)[C@]2(C(=O)CCl)O1 [halcinonide] |  |  | increase of utrophin protein content in human muscle cells (reported for glucocorticoids) [2]: increase of utrophin protein content
21 | C[C@H]1C[C@@H]2[C@H]([C@@H](O)C[C@@]3(C)[C@H]2CC[C@]3(O)C(=O)CO)[C@@]2(C)C=CC(=O)C=C12 [α-methylprednisolone] |  |  | increase of utrophin protein content in human muscle cells (reported for glucocorticoids) [2]: increase of utrophin protein content
22 | Norethisterone [Example 40] | 106 |  | % UTR vs. DMSO (normalized utrophin protein over DMSO-solvent treated control) [1, 3]: 134%
